One block for each compound: values may come before it.
Assays:
[1] = Screening PK in mice, 30 mg/kg po; format: in vivo
[2] = Human liver microsomal stability; format: in vitro ADME
[3] = Human plasma-protein binding; format: in vitro ADME; settings: for fraction unbound: human, plasma
[4] = Full pharmacokinetic study with oral administration in mice; format: in vivo
[5] = Murine plasma protein binding; format: in vitro ADME, mouse
[6] = Mouse liver microsomal stability; format: in vitro ADME
[7] = test system: MDCK-MDR1 cells (P-gp); assay: Permeability and efflux in MDCK-MDR1 cells; format: in vitro ADME
[8] = test system: NFKB activity (PANC-1); assay: TNF-induced NFKB activity in PANC-1 cells; format: cell-based
[9] = test system: HDAC4 phosphorylation; assay: TNF-induced phosphorylation of HDAC4; format: cell-based; settings: for Inhibition of HDAC4 phosphorylation: TNF-induced; for Inhibition of HDAC phosphorylation: summary Table 4.3
[10] = test system: NFKB activity (MC38); assay: TNF-induced NFKB activity in MC38 cells; format: cell-based, mouse; settings: for Inhibition of NFKB activity (MC38): TNF-induced, 10 ng/ml rMuTNF; for Inhibition of NFKB activity: summary Table 4.3, cell line not stated
Procedure: TNF-induced NFKB activity in MC38 cells was measured analogously to the assay in PANC-1 cells described in connection with Example 9.2 (Table 9C) of WO2020/083926), except that 10 ng/ml rMuTNF was used.

[11] = test system: MC38 cells; assay: MC38 syngeneic tumour model, in-vivo anti-cancer efficacy
[12] = Mouse hepatocyte stability; format: in vitro ADME
[13] = test system: MDCK-wild type cells; assay: Permeability and efflux in MDCK-wild type cells
[14] = Human hepatocyte stability; format: in vitro ADME; settings: for clearance classification: from human hepatocyte stability
[15] = target: T1, SIK3 (Homo sapiens, UniProt Q9Y2K2); assay: Radiometric protein kinase assay (33PanQinase Activity Assay), SIK3; format: biochemical
T1 construct: purchased ProQuinase, Freiburg, Germany
T1 sequence (Q9Y2K2 whole entry): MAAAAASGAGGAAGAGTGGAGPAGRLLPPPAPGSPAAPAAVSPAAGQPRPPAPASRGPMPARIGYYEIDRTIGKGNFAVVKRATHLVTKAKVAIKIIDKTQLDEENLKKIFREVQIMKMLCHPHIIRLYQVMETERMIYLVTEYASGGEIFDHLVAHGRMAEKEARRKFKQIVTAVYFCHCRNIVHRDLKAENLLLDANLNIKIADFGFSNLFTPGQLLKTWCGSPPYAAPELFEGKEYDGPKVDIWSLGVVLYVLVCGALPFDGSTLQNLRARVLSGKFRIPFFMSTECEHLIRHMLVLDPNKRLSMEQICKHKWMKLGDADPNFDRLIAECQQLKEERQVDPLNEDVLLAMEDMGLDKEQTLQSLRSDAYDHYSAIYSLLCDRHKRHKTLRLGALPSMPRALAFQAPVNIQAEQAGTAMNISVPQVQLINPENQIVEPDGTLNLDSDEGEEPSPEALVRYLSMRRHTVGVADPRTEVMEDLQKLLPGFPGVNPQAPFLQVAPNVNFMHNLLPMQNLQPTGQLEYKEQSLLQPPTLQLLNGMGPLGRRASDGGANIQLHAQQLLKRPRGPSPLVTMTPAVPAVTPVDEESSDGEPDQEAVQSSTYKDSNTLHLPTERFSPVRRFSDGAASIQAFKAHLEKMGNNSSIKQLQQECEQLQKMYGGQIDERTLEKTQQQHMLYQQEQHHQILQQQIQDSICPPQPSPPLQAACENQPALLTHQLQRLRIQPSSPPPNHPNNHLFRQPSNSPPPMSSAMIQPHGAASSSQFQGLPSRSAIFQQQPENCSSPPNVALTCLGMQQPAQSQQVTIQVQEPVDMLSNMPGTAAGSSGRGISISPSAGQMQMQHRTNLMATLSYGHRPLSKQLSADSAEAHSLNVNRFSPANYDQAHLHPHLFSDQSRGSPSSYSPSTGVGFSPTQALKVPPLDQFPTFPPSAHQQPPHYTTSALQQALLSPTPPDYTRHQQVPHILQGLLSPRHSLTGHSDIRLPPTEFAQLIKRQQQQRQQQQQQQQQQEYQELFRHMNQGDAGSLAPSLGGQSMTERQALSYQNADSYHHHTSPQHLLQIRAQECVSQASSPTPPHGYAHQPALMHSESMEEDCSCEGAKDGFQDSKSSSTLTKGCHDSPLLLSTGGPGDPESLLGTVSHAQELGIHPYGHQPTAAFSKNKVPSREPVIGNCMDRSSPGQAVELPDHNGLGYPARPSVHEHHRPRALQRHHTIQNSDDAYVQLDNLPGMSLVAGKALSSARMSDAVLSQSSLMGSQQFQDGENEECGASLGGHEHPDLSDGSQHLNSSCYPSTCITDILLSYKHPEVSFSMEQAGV
Procedure: (§1) Incorporation of 33Pi was determined with a microplate scintillation counter (Microbeta, Wallac).

[16] = test system: P-gp (MDR1); assay: Permeability and efflux in MDCK-MDR1 cells; format: in vitro ADME; settings: dog
[17] = test system: MC38 syngeneic tumour model; assay: MC38 syngeneic tumour model, comparative study E9 versus dasatinib (FIG. 5); format: in vivo, mice; settings: 25 mg/kg BID
[18] = target: T2, SIK2 (Homo sapiens, UniProt Q9H0K1); assay: Radiometric protein kinase assay (33PanQinase Activity Assay), SIK2; format: biochemical; settings: ATP 1.0 μM
T2 construct: purchased ProQuinase, Freiburg, Germany
T2 sequence (Q9H0K1 whole entry): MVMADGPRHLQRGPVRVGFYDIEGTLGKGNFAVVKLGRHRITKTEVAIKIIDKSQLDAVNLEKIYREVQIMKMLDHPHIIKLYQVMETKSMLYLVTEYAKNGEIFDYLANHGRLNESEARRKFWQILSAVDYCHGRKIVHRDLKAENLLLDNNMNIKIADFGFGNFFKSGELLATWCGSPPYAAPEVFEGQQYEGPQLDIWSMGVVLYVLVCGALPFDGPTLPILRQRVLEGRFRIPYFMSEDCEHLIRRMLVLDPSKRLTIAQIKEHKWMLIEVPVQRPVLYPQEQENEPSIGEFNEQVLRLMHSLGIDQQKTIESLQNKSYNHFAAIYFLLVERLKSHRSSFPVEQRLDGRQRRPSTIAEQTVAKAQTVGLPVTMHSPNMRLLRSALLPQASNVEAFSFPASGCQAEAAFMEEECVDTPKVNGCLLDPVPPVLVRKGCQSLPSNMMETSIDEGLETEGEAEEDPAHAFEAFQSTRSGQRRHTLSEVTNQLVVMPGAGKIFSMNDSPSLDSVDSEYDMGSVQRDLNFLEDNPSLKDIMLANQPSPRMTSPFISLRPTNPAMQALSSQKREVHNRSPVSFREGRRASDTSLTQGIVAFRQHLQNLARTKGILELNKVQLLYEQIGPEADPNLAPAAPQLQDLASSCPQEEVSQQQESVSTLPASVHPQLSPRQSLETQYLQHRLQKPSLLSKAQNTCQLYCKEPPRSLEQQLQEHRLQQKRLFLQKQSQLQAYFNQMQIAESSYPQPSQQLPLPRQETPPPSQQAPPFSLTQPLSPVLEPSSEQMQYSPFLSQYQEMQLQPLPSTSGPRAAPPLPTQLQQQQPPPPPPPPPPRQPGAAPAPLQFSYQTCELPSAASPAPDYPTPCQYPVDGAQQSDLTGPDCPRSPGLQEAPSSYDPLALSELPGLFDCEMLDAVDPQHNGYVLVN
Procedure: as §1

[19] = in vitro; settings: dog, MDCK
[20] = mice, 30 mg/kg po, Free plasma concentration
[21] = mice, 30 mg/kg po, Total plasma concentration
[22] = Total plasma concentration at 30 mg/kg p.o dose, C7 = 1x
[23] = mouse, plasma, mice, 30 mg/kg po, Free

SMILES: Cc1nc(Nc2ncc(C(=O)Nc3c(Cl)ccnc3C)s2)cc(N2CCN(CCO)CC2)n1 [Compound B3]
Cmax after 2 h ([1]; 30 mg/kg po, 2 h): 56 ng/mL
Free plasma concentration after 6 h ([1]; 30 mg/kg po, 6 h, free): 3 nM
Plasma concentration after 6 h ([1]; 30 mg/kg po, 6 h, total): 29 nM
Human liver microsomal stability: Half-life ([2]; human liver microsomes): 58 min
Human liver microsomal stability: Intrinsic clearance ([2]; human liver microsomes): 24 µL/min/mg
Human plasma-protein binding: Percentage unbound [3]: 7%
Tmax ([4]; mice, 30 mg/kg po, Free): 30 min
t1/2 ([4]; mice, 30 mg/kg po, Free): 144 min
Cmax [4, 20]: 10.7 ng/mL
% AUCextrap ([4]; mice, 30 mg/kg po, Total): 14%
AUCinf ([4]; mice, 30 mg/kg po, Total): 697 nM·h
AUClast ([4]; mice, 30 mg/kg po, Total): 589 nM·h
Tmax ([4]; mice, 30 mg/kg po, Total): 30 min
t1/2 ([4]; mice, 30 mg/kg po, Total): 144 min
Cmax [4, 21]: 99 ng/mL
Murine plasma protein binding: Percentage unbound ([5]; murine plasma): 11%
Mouse liver microsomal stability: Half-life ([6]; mouse liver microsomes): 62 min
Mouse liver microsomal stability: Intrinsic clearance ([6]; mouse liver microsomes): 22 µL/min/mg

SMILES: Cc1nc(Nc2ncc(C(=O)Nc3c(C)csc3Cl)s2)cc(N2CCN(CCO)CC2)n1 [Compound C7]
Mean Papp A > B [7]: 2 10^−6 cm/s
Inhibition of NFKB activity (PANC-1) [8]: +
Inhibition of HDAC4 phosphorylation [9]: +
Inhibition of HDAC phosphorylation [9]: +
Inhibition of NFKB activity (MC38) [10]: +
Inhibition of NFKB activity [10]: +
Body weight increase ([11]; 100 mg/Kg, BID, po): 1.0%
Non-treatment related death ([11]; 100 mg/Kg, BID, po): 3/16
Tumour growth inhibition ([11]; 100 mg/Kg, BID, po): 78%
Human liver microsomal stability: Half-life ([2]; human liver microsomes): 10 min
Human liver microsomal stability: Intrinsic clearance ([2]; human liver microsomes): 142 µL/min/mg
Mouse hepatocyte stability: Half-life ([12]; mouse hepatocytes): 50 min
Mouse hepatocyte stability: Intrinsic clearance ([12]; mouse hepatocytes): 28 µL/min/mg
Mean Papp A > B [13]: 9 10^−6 cm/s
Human plasma-protein binding: Percentage unbound [3]: 2%
Human plasma-protein binding: Recovery at 4 h ([3]; 4 h): 75%
% AUCextrap ([4]; mice, 30 mg/kg po, Free): 11.24%
AUCinf ([4]; mice, 30 mg/kg po, Free): 58.79 nM·h
AUClast ([4]; mice, 30 mg/kg po, Free): 52.07 nM·h
MRTlast ([4]; mice, 30 mg/kg po, Free): 165 min
Rsq ([4]; mice, 30 mg/kg po, Free): 0.99
Tmax ([4]; mice, 30 mg/kg po, Free): 120 min
t1/2 ([4]; mice, 30 mg/kg po, Free): 85.2 min
Cmax [4, 20]: 21.34 ng/mL
% AUCextrap ([4]; mice, 30 mg/kg po, Total): 11.24%
AUCinf ([4]; mice, 30 mg/kg po, Total): 1,306.48 nM*h
AUClast ([4]; mice, 30 mg/kg po, Total): 1,157.10 nM*h
MRTlast ([4]; mice, 30 mg/kg po, Total): 165 min
Rsq ([4]; mice, 30 mg/kg po, Total): 0.99
Tmax ([4]; mice, 30 mg/kg po, Total): 120 min
t1/2 ([4]; mice, 30 mg/kg po, Total): 85.2 min
Cmax [4, 21]: 474.16 ng/mL
Murine plasma protein binding: Percentage unbound ([5]; murine plasma): 3%
Murine plasma protein binding: Recovery at 4 h ([5]; murine plasma, 4 h): 87%
Mouse liver microsomal stability: Half-life ([6]; mouse liver microsomes): 13 min
Mouse liver microsomal stability: Intrinsic clearance ([6]; mouse liver microsomes): 110 µL/min/mg
clearance classification [14]: medium-to-high clearance drugs
Human hepatocyte stability: Half-life ([14]; human hepatocytes): 54 min
Human hepatocyte stability: Intrinsic clearance ([14]; human hepatocytes): 26 µL/min/mg
half-life in the presence of human hepatocytes ([14]; human hepatocytes): approx. 1 h

SMILES: Cc1nc(Nc2ncc(C(=O)Nc3c(C)cccc3Cl)s2)cc(N2CCN(CCO)CC2)n1 [Compound A8, N-(2-chloro-6-methylphenyl)-2-[[6-[4-(2-hydroxyethyl)-1-piperazinyl]-2-methyl-4-pyrimidinyl]amino]-5-thiazolecarboxamide]
Inhibition of NFKB activity (PANC-1) [8]: +
Cmax ([1]; mouse, plasma, 30 mg/kg po, 2 h): 550 ng/mL
Inhibition of HDAC4 phosphorylation [9]: ++
Inhibition of NFKB activity (MC38) [10]: +

More lines, main results first:

Free plasma concentration after 6 h ([1]; 30 mg/kg po, 6 h, free): 8 nM
IC50 ([15]; ATP 1.0 μM): ~60 nM
SMILES: Cc1nc(Nc2ncc(C(=O)Nc3c(C)csc3Cl)s2)cc(N2CCN(C)CC2)n1 [Compound D9]
Inhibition of NFKB activity (PANC-1) [8]: +
Inhibition of HDAC4 phosphorylation [9]: +

Papp A→B [16]: 5 ×10⁻⁶ cm/s
improvement for free serum concentration over C7 ([1]; 30 mg/Kg po, free): 2 fold
improvement for total serum concentration over C7 ([1]; 30 mg/Kg po, total): 4.5 fold
clearance classification ([2]; from human liver microsomal stability): high clearance drugs
half-life ([2]; human liver microsomes): ~10 min
microsomal CLint ([2]; human liver microsomes, read-out: Human liver microsomal stability: Intrinsic clearance): 130 to 150 µL/min/mg
SIK3 IC50 (nM), relative to C7 ([15]; relative to C7 = 1x): 0.3x
potency against SIK3 improved over C7 and D9 ([15]; relative to C7 and D9): 2-3 times
IC50 [18]: < 10 nM
clearance classification ([12]; from mouse hepatocyte stability): medium clearance drug
half-life ([12]; mouse hepatocytes): ~65 min
fraction unbound ([3]; read-out: Human plasma-protein binding: Percentage unbound): 0.01
fraction unbound ([3]; read-out: human plasma protein binding): < 0.05
AUC0-last (nM*h), relative to C7 [4, 22]: 8.2x
C max (ng/ml), relative to C7 [4, 22]: 5.6x
MRT0-last (h), relative to C7 [4, 22]: 1.2x
t1/2 (h), relative to C7 [4, 22]: 2x
% AUCextrap ([4]; mice, 30 mg/kg po, Free): 0.49%
MRTlast ([4]; mice, 30 mg/kg po, Free): 203 min
Rsq ([4]; mice, 30 mg/kg po, Free): 0.84
Tmax ([4]; mice, 30 mg/kg po, Free): 15 min
t1/2 ([4]; mice, 30 mg/kg po, Free): 166 min
% AUCextrap ([4]; mice, 30 mg/kg po, Total): 0.49%
Rsq ([4]; mice, 30 mg/kg po, Total): 0.84
AUC(0-inf) [4, 23]: 0.24 µM·h
AUC(0-t) [4, 23]: 0.239 µM·h
Cmax ([4]; mouse, mice, 30 mg/kg po, Free plasma concentration, read-out: Cmax): 66.9 ng/mL
fraction unbound ([5]; mouse plasma): < 0.05
fraction unbound at 4 h ([5]; mouse, murine plasma, read-out: Murine plasma protein binding: Percentage unbound): 0.01
Papp A→B [19]: 10 ×10⁻⁶ cm/s
efflux ratio [19]: 20 to 30
clearance classification ([6]; from mouse liver microsomal stability): high clearance drugs
half-life ([6]; mouse liver microsomes): ~10 min
microsomal CLint ([6]; mouse liver microsomes, read-out: Mouse liver microsomal stability: Intrinsic clearance): 130 to 150 µL/min/mg
clearance classification [14]: high clearance drugs
half-life ([14]; human hepatocytes): ~25 min
SMILES: Cc1nc(Nc2ncc(C(=O)Nc3c(CF)csc3Cl)s2)cc(N2CCN(C)CC2)n1 [Compound E9, N-(2-chloro-4-(fluoromethyl)thiophen-3-yl)-2-((2-methyl-6-(4-methylpiperazin-1-yl)pyrimidin-4-yl)amino)thiazole-5-carboxamide]
average TGI [17]: 72%
Inhibition of HDAC4 phosphorylation [9]: ++
Inhibition of HDAC phosphorylation [9]: ++
Inhibition of NFKB activity [10]: ++
Body weight increase ([11]; 25 mg/Kg, BID, po): 16.8%
Tumour growth inhibition ([11]; 25 mg/Kg, BID, po): 74%
Body weight increase ([11]; 50 mg/Kg, BID, po): 18.7%
Tumour growth inhibition ([11]; 50 mg/Kg, BID, po): 69%
treatment related side effects and clinical signs ([11]; administered orally): no direct treatment related side effects and clinical signs

Source: patent publication US20250296928A1, “A SYNTHESIS SCHEME AND PROCEDURES FOR PREPARING A SIK3 INHIBITOR AND INTERMEDIATES THEREOF” (iOmx Therapeutics AG, priority 2021, published 2025)
